Data set [1] concerns MCF-7 breast cancer cell line. In words: Antiproliferation study, MTT cell viability assay. It is filed as cell-based. The note with it: Homo sapiens, MCF7, 72 h, antiproliferative activity, MTT, 72 h; read-out: IC50 (μM) MCF-7 cell line. The protocol: All assays were performed in triplicate for the determination of mean values reported. Compounds were assayed as the free bases isolated from reaction. The human breast tumour cell line MCF-7 was cultured in Eagles minimum essential medium in a […] atmosphere with 10% fetal bovine serum, 2 mM L-glutamine and 100 μg/mL penicillin/streptomycin. The medium was supplemented with 1% non-essential amino acids. MDA-MB-231 cells were maintained in Dulbecco's Modified Eagle's medium (DMEM), supplemented with 10% (v/v) Fetal bovine serum, 2 mM L-glutamine and 100 μg/mL penicillin/streptomycin (complete medium). Cells were trypsinised and seeded at a density of 2.5×10^4 cells/ml in a 96-well plate and incubated at 37° C., […] atmosphere for 24 h. […] Control wells contained the equivalent volume of the vehicle ethanol (1% v/v). The culture medium was then removed and the cells washed with 100 μL phosphate buffered saline (PBS) and 50 μL MTT added, to reach a final concentration of 1 mg/mL MTT added. Cells were incubated for 2 h in darkness at 37° C. At this point solubilization was begun through the addition of 200 μL DMSO and the cells maintained at room temperature in darkness for 20 min to ensure thorough colour diffusion before reading the absorbance. The absorbance value of control cells (no added compound) was set to 100% cell viability and from this graphs of absorbance versus cell density per well were prepared to assess cell viability and from these, graphs of percentage cell viability versus concentration of subject compound added were drawn.

The test system of another data set is HL-60 parental. The data set is described as follows: Alamar Blue cell viability assay. It is filed as cell-based. The note with it: Homo sapiens, 72 h.
In a further data set the test system is HL-60-MDR(PGP). The data set is described as follows: Alamar Blue cell viability assay. The data set is classed as cell-based, human. The note with it: for pIC50: Homo sapiens, HL60/MDR, HL-60-MDR(PGP), 72 h, Alamar blue, read-out: IC50; for RF: IC50 HL-60-MDR(PGP) / IC50 HL-60 parental.
The subject of a further data set is A2780-parental. In words: Alamar Blue cell viability assay. It is filed as cell-based. The note with it: 72 h. A general note: Resazurin is reduced to fluorescent resorufin, in cell work by metabolically active cells.
In the next data set the test system is A2780-ADR (PGP). The data set is described as follows: Alamar Blue cell viability assay. The note with it: for pIC50: A2780 ADR, 72 h; for RF: IC50 A2780-ADR (PGP) / IC50 A2780-parental.
Data set [2] in a line: Stability by HPLC at three pH values. It is filed as physicochemical. The protocol: The stability of β-lactam compounds 4, 8 and 12 was assessed by HPLC at three different pH values. […] The half-lives of 8 and 12 were both greater than 24 hours at all pH values. The stability of three ester prodrug derivatives of 4, i.e. 29, 30 and 31, was also assessed (FIG. 6).

By IC50 is commonly meant the concentration at which inhibition is half-maximal. Broadly, the melting point is the temperature, or range, at which the solid turns liquid. What is called pIC50 is −log10 of the IC50, conventionally taken in molar units.

SMILES strings stand for the structures. pIC50: −log10 of the molar value. Where only a bound is given, the exact number is not on record here.

Protocol for A2780-ADR (PGP): (§1) Three drug resistant cell lines and respective parental cell lines were assessed. […] Western blot analysis confirmed the overexpression of p-glycoprotein and BCRP in respective cell lines.
(§2) Cells were exposed to multiple concentrations of the indicated compound for 72 h. Cell viability was assessed using the Alamar blue assay and respective IC50 values were calculated. The resistance factor (RF) was calculated by dividing the IC50 of the resistant cell line/IC50 of the parental cell line.
(§3) All cells were cultured in RPMI-1640 Glutamax medium supplemented with 10% FCS media, 100 units/ml penicillin and 100 μg/mIstreptomycin. Cells were maintained at 37° C. in 5% CO2 in a humidified incubator.
(§4) The reduction of Alamar Blue is proportional to the number of viable cells. Cells (200 μl) were plated in triplicate in a 96-well plates (K562, 100,000/ml; HL-60, 300,000/ml; A-2780 50,000/ml). A-2780 cells were plated 24 h prior to treatment. Suspension cells were plated in the log phase of growth and treated immediately. The cells were then treated with either medium alone, vehicle (1% ethanol v/v or 0.1% DMSO v/v) or with a range of concentrations of drug [0.001-10 μM]. After 72 h, Alamar Blue was added to each well (10% of final volume) and fluorescence was read using a 96-well fluorometer with excitation at 530 nm and emission of 590 nm. The blank solution consisted of medium and Alamar Blue and the blank solution was used to calibrate the spectrophotometer to zero absorbance. The relative cell viability (%) related to control wells and was calculated by [A]test/[A]control×100 where [A]test is the absorbance of the drug treated cells and [A]control the absorbance of the vehicle control treated cells. Dose response curves were plotted and IC50 values (concentration of drug resulting in 50% reduction in cell survival) were obtained using the commercial software package Prism (GraphPad Software, Inc., La Jolla, USA). Experiments were performed in triplicate on at least three separate occasions.
Protocol for A2780-parental: as §2
(§5) A2780-parental and A2780-ADR resistant cells were provided by the Beatson Institute of Cancer Research, Glasgow. […] All cells were cultured in RPMI-1640 Glutamax medium supplemented with 10% FCS media, 100 units/ml penicillin and 100 μg/mIstreptomycin. Cells were maintained at 37° C. in 5% CO2 in a humidified incubator.
as §4
Protocol for HL-60 parental: as §2, §5, §4
Protocol for HL-60-MDR(PGP): as §1, §2, §3, §4

On to `COc1ccc(C2C(c3ccc(O)cc3)C(=O)N2c2cc(OC)c(OC)c(OC)c2)cc1N` (centres unmarked) [Compound 15, 4-(3-Amino-4-methoxy-phenyl)-3-(4-hydroxy-phenyl)-1-(3,4,5-trimethoxy-phenyl)-azetidin-2-one], for which the melting point was found to be 177 °C. Also, in data set [1], the IC50 is 0.039 µM.

For `COc1ccc(C2C(c3cccc(O)c3)C(=O)N2c2cc(OC)c(OC)c(OC)c2)cc1` (centres unmarked) [Compound 22, 3-(3-Hydroxy-phenyl)-4-(4-methoxy-phenyl)-1-(3,4,5-trimethoxy-phenyl)-azetidin-2-one], in data set [1], the IC50 was 0.0689 µM.

Turning to `COc1ccc(C2C(C)C(=O)N2c2cc(OC)c(OC)c(OC)c2)cc1` (centres unmarked) [Compound 27, 4-(4-Methoxyphenyl)-3-methyl-1-(3,4,5-trimethoxyphenyl)-azetidin-2-one], the 50% inhibitory concentration (IC50) in data set [1] was 0.047 µM.

Turning to `CC[C@]1(O)C[C@H]2CN(CCc3c([nH]c4ccccc34)[C@@](C(=O)OC)(c3cc4c(cc3OC)N(C=O)[C@H]3[C@@](O)(C(=O)OC)[C@H](OC(C)=O)[C@]5(CC)C=CCN6CC[C@]43[C@@H]65)C2)C1` [Vincristine, vincristine], the pIC50 was 8.66 in the data set with HL-60 parental, 6.21 in the data set with HL-60-MDR(PGP), 8.51 in the data set with A2780-parental and 5.80 with A2780-ADR (PGP). Moreover, the results for the RF in the data set with HL-60-MDR(PGP) and with A2780-ADR (PGP) were 277.3 and 516, respectively.

For `CC(=O)O[C@H]1C(=O)[C@@]2(C)[C@H]([C@H](OC(=O)c3ccccc3)[C@]3(O)C[C@H](OC(=O)[C@H](O)[C@@H](NC(=O)c4ccccc4)c4ccccc4)C(C)=C1C3(C)C)[C@]1(OC(C)=O)CO[C@@H]1C[C@@H]2O` [Paclitaxel, paclitaxel], the pIC50 is 8.32 with HL-60 parental, below 5.00 with HL-60-MDR(PGP), 8.38 in the data set on A2780-parental and below 5.00 in the data set on A2780-ADR (PGP). Also, the RF in the data set on HL-60-MDR(PGP) is reported as >2,083; in the data set on A2780-ADR (PGP), >2,381.

For the compound `COc1ccc(C2C(c3ccc(N)cc3)C(=O)N2c2cc(OC)c(OC)c(OC)c2)cc1N` (centres unmarked) [Compound 24, 4-(3-Amino-4-methoxy-phenyl)-3-(4-amino-phenyl)-1-(3,4,5-trimethoxy-phenyl)-azetidin-2-one], the concentration for half-maximal inhibition (IC50) in data set [1] stood at 0.03 µM.

In the case of `COc1ccc(C2C(C(O)C=Cc3ccccc3)C(=O)N2c2cc(OC)c(OC)c(OC)c2)cc1O` (centres unmarked) [Compound 7, 4-(3-Hydroxy-4-methoxy-phenyl)-3-(1-hydroxy-3-phenyl-allyl)-1-(3,4,5-trimethoxy-phenyl)-azetidin-2-one], in data set [1], the IC50 is 0.0468 µM.

Take `COc1ccc(C2[C@H](c3ccccc3)C(=O)N2c2cc(OC)c(OC)c(OC)c2)cc1OC(=O)c1ccccc1` (some centres unmarked) [Compound 31]: the figures for the “compound remaining after 24 hours” value in data set [2] (pH 4), in data set [2] (pH 7.4) and in data set [2] (pH 9) were 61%, 35% and 76%, respectively.

`COc1ccc(C2C(c3cccs3)C(=O)N2c2cc(OC)c(OC)c(OC)c2)cc1N` (centres unmarked) [Compound 19, 4-(3-Amino-4-methoxy-phenyl)-3-thiophen-2-yl-1-(3,4,5-trimethoxy-phenyl)-azetidin-2-one]: the half-maximal inhibitory concentration (IC50) in data set [1] came out at 0.041 µM.

For the compound `COc1ccc(C2C(c3ccc(N)cc3)C(=O)N2c2cc(OC)c(OC)c(OC)c2)cc1` (centres unmarked) [Compound 9, 3-(4-Amino-phenyl)-4-(4-methoxy-phenyl)-1-(3,4,5-trimethoxyphenyl)-azetidin-2-one], in data set [1], the IC50 was found to be 0.05 µM.

The compound `COc1ccc(C2C(c3ccc(O)cc3)C(=O)N2c2cc(OC)c(OC)c(OC)c2)cc1` (centres unmarked) [Compound 10, 3-(4-Hydroxy-phenyl)-4-(4-methoxy-phenyl)-1-(3,4,5-trimethoxy-phenyl)-azetidin-2-one] returned a melting point of 155 °C. Besides, the concentration for half-maximal inhibition (IC50) in data set [1] turned out to be 0.059 µM.

For the compound `COc1ccc(C2C(c3ccccc3)C(=O)N2c2cc(OC)c(OC)c(OC)c2)cc1N` (centres unmarked) [Compound 13, 4-(3-Amino-4-methoxy-phenyl)-3-phenyl-1-(3,4,5-trimethoxy-phenyl)-azetidin-2-one], the half-inhibitory concentration (IC50) in data set [1] was found to be 0.065 µM.

Regarding `COc1ccc(C2C(c3ccc(F)cc3)C(=O)N2c2cc(OC)c(OC)c(OC)c2)cc1N` (centres unmarked) [Compound 17, 4-(3-Amino-4-methoxy-phenyl)-3-(4-fluoro-phenyl)-1-(3,4,5-trimethoxy-phenyl)-azetidin-2-one], in data set [1], the half-inhibitory concentration (IC50) stood at 0.055 µM.

`COc1ccc(C2C(c3ccsc3)C(=O)N2c2cc(OC)c(OC)c(OC)c2)cc1` (centres unmarked) [Compound 21, 4-(4-Methoxy-phenyl)-3-thiophen-3-yl-1-(3,4,5-trimethoxy-phenyl)-azetidin-2-one]: the melting point was 130 °C. For the same compound, in data set [1], the IC50 was 0.06 µM.

For `COc1ccc(C2CC(=O)N2c2cc(OC)c(OC)c(OC)c2)cc1` (centres unmarked) [Compound 26, 4-(4-Methoxyphenyl)-1-(3,4,5-trimethoxyphenyl)-azetidin-2-one], the IC50 in data set [1] was 0.039 µM.

Regarding `COc1ccc(C2C(C(C)O)C(=O)N2c2cc(OC)c(OC)c(OC)c2)cc1O` (centres unmarked) [Compound 6, 3-(1-Hydroxy-ethyl)-4-(3-hydroxy-4-methoxy-phenyl)-1-(3,4,5-trimethoxy-phenyl)-azetidin-2-one], the 50% inhibitory concentration (IC50) in data set [1] turned out to be 0.0376 µM.

In the case of `COc1cccc2c1C(=O)c1c(O)c3c(c(O)c1C2=O)C[C@@](O)(C(=O)CO)C[C@@H]3O[C@H]1C[C@H](N)[C@H](O)[C@H](C)O1` [Adriamycin, adriamycin], the negative-log IC50 (pIC50) in the data set on A2780-parental is 7.37. Further, in the data set on A2780-ADR (PGP), the negative-log IC50 (pIC50) was 5.29 and the RF is recorded as 119.2.

In turn, `COc1ccc(C2C(c3cccs3)C(=O)N2c2cc(OC)c(OC)c(OC)c2)cc1O` (centres unmarked) [Compound 18, 4-(3-Hydroxy-4-methoxy-phenyl)-3-thiophen-2-yl-1-(3,4,5-trimethoxy-phenyl)-azetidin-2-one] yielded a melting point of 113 to 114 °C. Also, the half-inhibitory concentration (IC50) in data set [1] was found to be 0.007 µM.

For `C=C(C)C1C(=O)N(c2cc(OC)c(OC)c(OC)c2)C1c1ccc(OC)c(O)c1` (centres unmarked) [Compound 3, 4-(3-Hydroxy-4-methoxy-phenyl)-3-isopropenyl-1-(3,4,5-trimethoxy-phenyl)-azetidin-2-one], the IC50 in data set [1] was found to be 0.019 µM.

Regarding `COc1ccc(C2[C@H](c3ccccc3)C(=O)N2c2cc(OC)c(OC)c(OC)c2)cc1OC(C)=O` (some centres unmarked) [Compound 30], the results for the “compound remaining after 24 hours” value in data set [2] (pH 4), in data set [2] (pH 7.4) and in data set [2] (pH 9) were 60%, 42% and 54%, respectively.

On to `COc1ccc(C2C(c3ccc(F)cc3)C(=O)N2c2cc(OC)c(OC)c(OC)c2)cc1` (centres unmarked) [Compound 11, 3-(4-Fluoro-phenyl)-4-(4-methoxy-phenyl)-1-(3,4,5-trimethoxy-phenyl)-azetidin-2-one], for which the melting point stood at 120 °C. In addition, in data set [1], the half-maximal inhibitory concentration (IC50) is 0.042 µM.

As to `COc1ccc([C@H]2[C@H](c3ccccc3)C(=O)N2c2cc(OC)c(OC)c(OC)c2)cc1OP(=O)(O)O` [Compound 29], the “compound remaining after 24 hours” value in data set [2] (pH 4), in data set [2] (pH 7.4) and in data set [2] (pH 9) was 100% each time.

Regarding `COc1ccc(C2C(c3ccc(N)cc3)C(=O)N2c2cc(OC)c(OC)c(OC)c2)cc1O` (centres unmarked) [Compound 23, 3-(4-Amino-phenyl)-4-(3-hydroxy-4-methoxy-phenyl)-1-(3,4,5-trimethoxy-phenyl)-azetidin-2-one], in data set [1], the 50% inhibitory concentration (IC50) is 0.004 µM.

Consider `COc1ccc(C2C(c3ccc(F)cc3)C(=O)N2c2cc(OC)c(OC)c(OC)c2)cc1O` (centres unmarked) [Compound 16, 3-(4-Fluoro-phenyl)-4-(3-hydroxy-4-methoxy-phenyl)-1-(3,4,5-trimethoxy-phenyl)-azetidin-2-one], for which, in data set [1], the IC50 stood at 0.065 µM.

The compound `COc1ccc(C2C(c3ccsc3)C(=O)N2c2cc(OC)c(OC)c(OC)c2)cc1O` (centres unmarked) [Compound 20, 4-(3-Hydroxy-4-methoxy-phenyl)-3-thiophen-3-yl-1-(3,4,5-trimethoxy-phenyl)-azetidin-2-one] showed a melting point of 151 to 152 °C. Moreover, the IC50 in data set [1] worked out at 0.01 µM.

On to `COc1ccc(C2C(C)C(=O)N2c2cc(OC)c(OC)c(OC)c2)cc1O` (centres unmarked) [Compound 28, 4-(3-Hydroxy-4-methoxyphenyl)-3-methyl-1-(3,4,5-trimethoxyphenyl)-azetidin-2-one], for which the IC50 in data set [1] came to 0.01 µM.

Values taken from patent publication US20120309734A1, “COMBRETASTATIN DERIVATIVES AND USES THEREFOR” (priority 2009, published 2012).
